# Measurements published in ChEMBL document CHEMBL1127585, “Novel 1-phenylcycloalkanecarboxylic acid derivatives are potent and selective sigma 1 ligands” (J Med Chem, 1994).
# Columns and labels:
# [1] = molecular target: T1, Sigma non-opioid intracellular receptor 1 (Rattus norvegicus, UniProt Q9R0C9); experiment: Tested for its binding affinity towards sigma-1 site in rat brain using E3H1-(+)-SKF 10047 as radioligand in rat brain; format: tissue-based
# [2] = molecular target: Sigma non-opioid intracellular receptor 1 (Rattus norvegicus) (UniProt Q9R0C9); experiment: Ratio between the Ki values of sigma-2 and sigma-1 receptors
# Sigma 2 receptor [3] = experiment: Tested for its binding affinity towards sigma-2 site in rat brain using [3H]DTG as radioligand; format: tissue-based
# [4] = molecular target: T2, Muscarinic acetylcholine receptor M1 (Homo sapiens, UniProt P11229); experiment: Binding affinity towards muscarinic m1 receptor
# T2 sequence (P11229 whole entry): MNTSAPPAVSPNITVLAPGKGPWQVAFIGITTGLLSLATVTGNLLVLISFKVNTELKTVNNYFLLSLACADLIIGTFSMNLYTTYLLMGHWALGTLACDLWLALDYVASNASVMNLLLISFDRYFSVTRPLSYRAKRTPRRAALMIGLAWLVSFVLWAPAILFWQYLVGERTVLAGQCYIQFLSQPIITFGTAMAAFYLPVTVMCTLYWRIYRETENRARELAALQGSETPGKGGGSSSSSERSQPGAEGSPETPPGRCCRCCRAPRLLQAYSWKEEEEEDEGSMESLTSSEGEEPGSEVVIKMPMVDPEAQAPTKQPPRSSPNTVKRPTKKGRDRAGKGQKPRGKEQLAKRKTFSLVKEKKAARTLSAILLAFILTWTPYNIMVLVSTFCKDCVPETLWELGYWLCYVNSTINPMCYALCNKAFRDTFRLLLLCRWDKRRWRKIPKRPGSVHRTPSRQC
# [5] = Ratio between the Ki values of m1 and sigma-1 receptors
# [6] = molecular target: T3, Muscarinic acetylcholine receptor M2 (Homo sapiens, UniProt P08172); experiment: Binding affinity towards muscarinic m2 receptor
# T3 sequence (P08172 whole entry): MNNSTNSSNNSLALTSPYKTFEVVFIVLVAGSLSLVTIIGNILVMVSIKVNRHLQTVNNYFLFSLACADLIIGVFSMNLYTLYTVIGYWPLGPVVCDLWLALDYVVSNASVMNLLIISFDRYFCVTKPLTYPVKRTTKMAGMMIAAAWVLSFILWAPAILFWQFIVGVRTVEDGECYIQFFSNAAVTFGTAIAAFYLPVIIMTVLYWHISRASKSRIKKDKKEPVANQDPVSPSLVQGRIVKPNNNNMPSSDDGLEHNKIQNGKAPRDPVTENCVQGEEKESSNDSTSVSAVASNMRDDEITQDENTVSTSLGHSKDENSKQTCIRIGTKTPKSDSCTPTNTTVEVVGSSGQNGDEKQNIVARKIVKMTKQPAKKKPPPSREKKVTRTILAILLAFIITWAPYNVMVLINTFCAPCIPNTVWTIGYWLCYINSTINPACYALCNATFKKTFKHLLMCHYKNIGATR
# Glutamate NMDA receptor = experiment: Binding affinity towards PCP (1-(1-phenylcyclohexyl)piperidine) receptor.; format: protein-complex assay
# [7] = molecular target: T1, Sigma non-opioid intracellular receptor 1; experiment: Tested for its binding affinity towards sigma-1 site in rat brain, using [3H]DTG as radioligand; format: tissue-based
# [8] = molecular target: T1, Sigma non-opioid intracellular receptor 1; experiment: Tested for its binding affinity towards sigma-1 site using E3H1-(+)-SKF 10047 as radioligand in rat brain; format: tissue-based
# Sigma 2 receptor [9] = experiment: Tested for its binding affinity towards sigma-2 site using [3H]-DTG as radioligand
# [10] = molecular target: T1, Sigma non-opioid intracellular receptor 1; experiment: Tested for its binding affinity towards sigma-1 site in rat brain, using [3H]-(+)-SKF- 10047 as radioligand; format: tissue-based
# Sigma non-opioid intracellular receptor 1 (Rattus norvegicus), sequence (Q9R0C9 whole entry): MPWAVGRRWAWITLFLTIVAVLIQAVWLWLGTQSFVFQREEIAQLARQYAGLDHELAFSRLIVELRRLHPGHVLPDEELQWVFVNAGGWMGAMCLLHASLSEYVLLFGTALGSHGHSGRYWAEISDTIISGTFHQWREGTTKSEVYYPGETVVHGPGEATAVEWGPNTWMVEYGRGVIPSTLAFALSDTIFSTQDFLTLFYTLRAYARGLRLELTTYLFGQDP
# T1 sequence (Q9R0C9 whole entry): as above
Compound,Ki [1] [µM],Ratio [2],Ki (Sigma 2 receptor [3]) [µM],Ki [4] [µM],Ratio [5],Ki [6] [µM],Ki (Glutamate NMDA receptor),Ki [7] [µM],Ki [8] [µM],Ki (Sigma 2 receptor [9]) [µM],Ki [10] [µM]
CCN(CC)CCOCCOC(=O)C1(c2ccc(OC)cc2)CCCC1,0.059,25,1.5,1.06,18,0.692,–,–,–,–,–
CCN(CC)CCOCOC(=O)C1(c2ccc(Cl)c(Cl)c2)CCCCC1,0.022,30,0.667,0.02,0.9,0.022,Not Active,–,–,–,–
CCN(CC)CCOCCNCC1(c2ccccc2)CCCC1,0.884,1.2,1.1,1.7,1.9,2.27,Not Active,–,–,–,–
c1ccc(CCCCCNCCCCc2ccccc2)cc1,–,–,–,–,–,–,–,0.002,–,–,–
CCN(CC)CCOCNC(=O)C1(c2ccc(Cl)c(Cl)c2)CCCCC1,0.027,20,0.527,0.581,22,0.5,Not Active,–,–,–,–
C=CCN1CCC2c3cc(O)ccc3CC1C2C (stereo unspecified),–,–,–,–,–,–,Not Active,–,0.067,0.044,–
O=C(OCOCCN1CCOCC1)C1(c2ccc(Cl)c(Cl)c2)CCCCC1,0.039,25,0.981,3.11,80,1.19,Not Active,–,–,–,–
CCN(CC)CCOCCOC(=O)C1(c2ccccc2)CCCC1 [CARBETAPENTANE],–,–,–,0.076,–,0.167,Not Active,–,–,–,–
CCN(CC)CCOCCN(C)CC1(c2ccccc2)CCCC1,0.034,32,1.1,0.843,25,1.57,Not Active,–,–,–,–
CCN(CC)CCOCCOC(=O)C(C)c1ccccc1 (stereo unspecified),0.04,78,3.11,> 10,> 250,> 10,Not Active,–,–,–,–
CCN(CC)CCOCCOC(=O)C1(c2ccc(Cl)cc2)CCCC1,0.024,27,0.648,0.075,3.1,0.097,Not Active,–,–,–,–
CCN(CC)CCOCCOC(=O)C1(c2ccccc2)CCCCC1,0.034,23,0.78,0.135,4,0.145,Not Active,–,–,–,–
O=C(OCCN1CCOCC1)C1(c2ccccc2)CCCCC1,–,–,–,–,–,–,–,–,–,–,0.044
CCN(CC)CCOCCOC(=O)C1(c2ccccc2)CC1,0.045,65,2.91,> 10,> 220,> 10,Not Active,–,–,–,–
CCN(CC)CCOCCNC(=O)C1(c2ccccc2)CCCC1,0.215,13,2.84,> 10,> 46,4.9,Not Active,–,–,–,–
Cc1ccccc1NC(=N)Nc1ccccc1C [DITOLYLGUANIDINE],–,–,–,–,–,–,Not Active,–,–,–,–
O=C(NCOCCN1CCOCC1)C1(c2ccc(Cl)c(Cl)c2)CCCCC1,0.032,51,1.64,> 10,> 310,> 10,Not Active,–,–,–,–
O=C(OCOCCN1CCCC1)C1(c2ccc(Cl)c(Cl)c2)CCCCC1,0.032,22,0.688,0.063,2,0.074,Not Active,–,–,–,–
CCN(CC)CCOCCOCC1(c2ccccc2)CCCC1,0.027,17,0.463,0.91,34,0.844,Not Active,–,–,–,–
